Measured values: the CheMixHub viscosity set
± gives the uncertainty stated by the source.

Assay: xn = mol fraction of the nth substance listed

CO + O
Conditions | viscosity [mPa·s]
293.15 K, 100 kPa, x1 = 0.2 | 1.801 ± 0.0054
293.15 K, 100 kPa, x1 = 0.3 | 1.845 ± 0.0055
293.15 K, 100 kPa, x1 = 0.4 | 1.764 ± 0.0053
293.15 K, 101 kPa, x1 = 0.055 | 1.262 ± 0.031
293.15 K, 101 kPa, x1 = 0.129 | 1.651 ± 0.039
293.15 K, 101 kPa, x1 = 0.232 | 1.836 ± 0.044
293.15 K, 101 kPa, x1 = 0.487 | 1.555 ± 0.038
293.15 K, 101 kPa, x1 = 0.541 | 1.418 ± 0.035
293.15 K, 101 kPa, x1 = 0.625 | 1.23 ± 0.031
293.15 K, 101 kPa, x1 = 0.642 | 1.186 ± 0.03
293.15 K, 101 kPa, x1 = 0.903 | 0.745 ± 0.02
293.15 K, 101.3 kPa, x1 = 0.05886 | 1.276 ± 0.028
293.15 K, 101.3 kPa, x1 = 0.05892 | 1.276 ± 0.028
293.15 K, 101.3 kPa, x1 = 0.1014 | 1.465 ± 0.032
293.15 K, 101.3 kPa, x1 = 0.1021 | 1.453 ± 0.032
293.15 K, 101.3 kPa, x1 = 0.1493 | 1.628 ± 0.036
293.15 K, 101.3 kPa, x1 = 0.1972 | 1.742 ± 0.039
293.15 K, 101.3 kPa, x2 = 0.0969 | 0.743 ± 0.02
293.15 K, 101.3 kPa, x2 = 0.2006 | 0.916 ± 0.024
293.15 K, 101.3 kPa, x2 = 0.3002 | 1.105 ± 0.029
293.15 K, 101.3 kPa, x2 = 0.4001 | 1.314 ± 0.034
293.15 K, 101.3 kPa, x2 = 0.5 | 1.501 ± 0.039
293.15 K, 101.3 kPa, x2 = 0.7 | 1.837 ± 0.048
293.15 K, 101.3 kPa, x2 = 0.85 | 1.705 ± 0.045
293.15 K, 101.3 kPa, x2 = 0.9 | 1.528 ± 0.04
293.15 K, 101.3 kPa, x2 = 0.95 | 1.278 ± 0.033
298.15 K, 101 kPa, x1 = 0.0519 | 1.129 ± 0.0089
298.15 K, 101 kPa, x1 = 0.0845 | 1.264 ± 0.0099
298.15 K, 101 kPa, x1 = 0.125 | 1.385 ± 0.035
298.15 K, 101 kPa, x1 = 0.217 | 1.576 ± 0.012
298.15 K, 101 kPa, x1 = 0.274 | 1.59 ± 0.04
298.15 K, 101 kPa, x1 = 0.465 | 1.35 ± 0.034
298.15 K, 101 kPa, x1 = 0.702 | 1.03 ± 0.026
298.15 K, 101 kPa, x2 = 0.9413 | 1.1 ± 0.0087
298.15 K, 101.3 kPa, x1 = 0.1021 | 1.3 ± 0.029
298.15 K, 101.3 kPa, x1 = 0.1233 | 1.392 ± 0.036
298.15 K, 101.3 kPa, x1 = 0.2727 | 1.595 ± 0.042
298.15 K, 101.3 kPa, x1 = 0.3599 | 1.534 ± 0.04
298.15 K, 101.3 kPa, x1 = 0.4576 | 1.401 ± 0.037
298.15 K, 101.3 kPa, x1 = 0.5675 | 1.218 ± 0.032
298.15 K, 101.3 kPa, x1 = 0.6922 | 1.005 ± 0.026
298.15 K, 101.3 kPa, x1 = 0.835 | 0.782 ± 0.021
298.15 K, 101.3 kPa, x1 = 0.9144 | 0.659 ± 0.017
298.15 K, 101.33 kPa, x1 = 0.03958 | 1.055 ± 0.009
298.15 K, 101.33 kPa, x1 = 0.05923 | 1.157 ± 0.009
298.15 K, 101.33 kPa, x1 = 0.1332 | 1.403 ± 0.011
298.15 K, 101.33 kPa, x1 = 0.2396 | 1.6 ± 0.013
298.15 K, 101.33 kPa, x1 = 0.2551 | 1.575 ± 0.012
298.15 K, 101.33 kPa, x1 = 0.2785 | 1.57 ± 0.012
298.15 K, 101.33 kPa, x1 = 0.3255 | 1.57 ± 0.012
298.15 K, 101.33 kPa, x1 = 0.3558 | 1.532 ± 0.012
298.15 K, 101.33 kPa, x1 = 0.3863 | 1.49 ± 0.012
298.15 K, 101.33 kPa, x1 = 0.4426 | 1.427 ± 0.011
298.15 K, 101.33 kPa, x1 = 0.4685 | 1.37 ± 0.011
298.15 K, 101.33 kPa, x1 = 0.5278 | 1.282 ± 0.01
298.15 K, 101.33 kPa, x1 = 0.6055 | 1.167 ± 0.009
298.15 K, 101.33 kPa, x1 = 0.6583 | 1.105 ± 0.009
303.15 K, 101 kPa, x1 = 0.055 | 0.978 ± 0.024
303.15 K, 101 kPa, x1 = 0.129 | 1.245 ± 0.031
303.15 K, 101 kPa, x1 = 0.176 | 1.313 ± 0.032
303.15 K, 101 kPa, x1 = 0.256 | 1.37 ± 0.034
303.15 K, 101 kPa, x1 = 0.487 | 1.218 ± 0.03
303.15 K, 101 kPa, x1 = 0.541 | 1.126 ± 0.028
303.15 K, 101 kPa, x1 = 0.642 | 0.974 ± 0.025
303.15 K, 101 kPa, x1 = 0.903 | 0.63 ± 0.017
303.15 K, 101.3 kPa, x1 = 0.0588 | 1.015 ± 0.027
303.15 K, 101.3 kPa, x1 = 0.1233 | 1.206 ± 0.032
303.15 K, 101.3 kPa, x1 = 0.2727 | 1.381 ± 0.036
303.15 K, 101.3 kPa, x1 = 0.4576 | 1.239 ± 0.032
303.15 K, 101.3 kPa, x1 = 0.5675 | 1.085 ± 0.028
303.15 K, 101.3 kPa, x1 = 0.6922 | 0.907 ± 0.024
303.15 K, 101.3 kPa, x1 = 0.835 | 0.714 ± 0.019
303.15 K, 101.3 kPa, x1 = 0.9144 | 0.612 ± 0.016
303.15 K, 101.3 kPa, x2 = 0.0969 | 0.634 ± 0.017
303.15 K, 101.3 kPa, x2 = 0.1 | 0.618 ± 0.019
303.15 K, 101.3 kPa, x2 = 0.2006 | 0.768 ± 0.02
303.15 K, 101.3 kPa, x2 = 0.208 | 0.755 ± 0.024
303.15 K, 101.3 kPa, x2 = 0.3002 | 0.906 ± 0.024
303.15 K, 101.3 kPa, x2 = 0.3041 | 0.878 ± 0.028
303.15 K, 101.3 kPa, x2 = 0.4001 | 1.062 ± 0.028
